The values that follow come from patent publication US20050222114A1, “Use of new etonogestrel esters” (priority 2002, published 2005).

The structures appear in SMILES notation. Like-named read-outs stand apart in the source and are kept apart here.

A short description of data set [1]: Solubility in solvents determined visually (appearance). The following applies: for solubility at two times the desired concentration: all four solvents tested, desired concentration 50 mg/ml etonogestrel-undecanoate, 100 mg/ml MENT-undecanoate. In kind it is physicochemical. The protocol: To determine the solubility and viscosity of MENT undecanoate and etonogestrel undecanoate, four different solvents were used: • ethyl undecanoate • ethyl undecanoate+50% benzyl benzoate • arachis oil • arachis oil+50% benzyl benzoate
Using these solvents, the following solutions were prepared: • 100 mg/ml etonogestrel undecanoate in the different solvents • 50 mg/ml etonogestrel undecanoate in the different solvents • 200 mg/ml MENT undecanoate in the different solvents • 100 mg/ml MENT undecanoate in the different solvents • 50 mg/ml etonogestrel undecanoate+100 mg/ml MENT undecanoate in the different solvents
The two combined solvents were prepared by addition of 50 gram of ethyl undecanoate or arachis oil to 50 gram of benzyl benzoate. […] The arachis oil+50% benzyl benzoate solution was not filtered.
The solubility of the compounds in the solvents was determined visually. The viscosity was determined using a Brookfield model DV-III. The density of the solutions was determined using a Mettler Toledo DA-100M density meter.

Data set [2] is described as follows: Pharmacokinetics of androgen esters after one s.c. injection in castrated rabbits (plasma MENT or testosterone by LC-MSMS). In kind it is in vivo. The following applies: castrated rabbit, one s.c. injection 20 mg/kg in arachis oil (100 mg/ml). As to the method: With LC-MSMS, the amount of parent compound (testosterone or MENT) was determined in these samples.

Data set [3] is described as follows: Pharmacokinetics of etonogestrel esters after one i.m. injection in rabbits (plasma etonogestrel by LC-MSMS). The following applies: rabbit; for initial peak level of etonogestrel in plasma: one i.m. injection 20 mg/kg in arachis oil (40 mg/ml).
Procedure: (§1) For the determination of the pharmacokinetic profile of the different etonogestrel-esters after parenteral application, i.m. application in the castrated rabbit model was chosen instead of s.c. Briefly, rabbits were injected once (day 1) with indicated etonogestrel-esters at 20 mg/kg in arachis oil (with a concentration of 40 mg/ml). At day 1, 2, 3, 4, 5, 6, 7, 8, 10, 12, 14, 21, 28, 35, 49, 63, 77, 92, 106, 120 and 133 blood was collected from the ear arteria, in EDTA-containing tubes. EDTA plasma was prepared (1500 g, 15 min) and stored at −20° C. With LC-MSMS the amount of parent compound (etonogestrel) was determined in these samples. The lower limit of this new assay is 0.5 nmol/l, from 0-250 nmol/l a linear curve was obtained with a correlation coefficient of 0,9998.
For data set [4] the following is noted: rabbit, in vivo, 20 mg/kg.
Procedure: as §1
For data set [5] the following is noted: hypogonadal men, one IM injection, FIG. 5; cited from earlier work.
Where [6] appears, read: one i.m. injection 20 mg/kg in arachis oil.

On to `CCCCCCCCCCC(=O)O[C@H]1CC[C@H]2[C@H]3[C@H](CC[C@]12C)[C@H]1CCC(=O)C=C1C[C@H]3C` [MENT-undecanoate], for which the “heating necessary to dissolve” value in data set [1] (200 mg/ml in arachis oil) was “approximately 50 °C”. The “solubility at two times the desired concentration” value in data set [1] is “could be dissolved at two times the desired concentration”.

`CCCCCCC(=O)O[C@H]1CC[C@H]2[C@@H]3CCC4=CC(=O)CC[C@]4(C)[C@H]3CC[C@]12C` [Testosterone-enanthate]: in data set [2], the “pharmacokinetic profile of released MENT or testosterone (in words)” value is “high peak of testosterone”.

Regarding `C#CC1(OC(=O)CCCCCCCCC)CCC2C3CCC4=CC(=O)CCC4C3C(=C)CC21CC` (stereo not shown) [etonogestrel decanoate], the “initial peak level of etonogestrel in plasma” value (from here on “initial peak level”) in data set [3] was determined as 24 nmol/L.

For the compound `C#C[C@]1(OC(=O)CCCCCCCCCCC)CC[C@H]2[C@@H]3CCC4=CC(=O)CC[C@@H]4[C@H]3C(=C)C[C@@]21CC` [etonogestrel dodecanoate], in data set [3], the “initial peak level” value is 9 nmol/L.

As for `C#C[C@]1(OC(=O)CCCCCC)CC[C@H]2[C@@H]3CCC4=CC(=O)CC[C@@H]4[C@H]3C(=C)C[C@@]21CC` [etonogestrel heptanoate], the “initial peak level” value in data set [3] worked out at 120 nmol/L.

As to `C#C[C@]1(OC(=O)CCCCCCCC)CC[C@H]2[C@@H]3CCC4=CC(=O)CC[C@@H]4[C@H]3C(=C)C[C@@]21CC` [etonogestrel nonanoate], in data set [3] (setting [6]), the “pharmacokinetic profile of released etonogestrel (in words)” value was “lower peak levels and extended duration with serum levels of etonogestrel above 1 nmol/l”.

Consider `C#C[C@]1(OC(=O)CCCCCCCCCCCC)CC[C@H]2[C@@H]3CCC4=CC(=O)CC[C@@H]4[C@H]3C(=C)C[C@@]21CC` [etonogestrel tridecanoate], for which the “pharmacokinetic profile of released etonogestrel (in words)” value in data set [3] (setting [6]) is given as “no initial levels of etonogestrel were observed”.

On to `C#C[C@]1(OC(=O)CCCCCCCCCC)CC[C@H]2[C@@H]3CCC4=CC(=O)CC[C@@H]4[C@H]3C(=C)C[C@@]21CC` [etonogestrel undecanoate], for which the “solubility at two times the desired concentration” value in data set [1] is listed as “could be dissolved at two times the desired concentration”. Further, in data set [3] (setting [6]), the “duration of action: etonogestrel levels above 1 nmol/l” value is “more than 92 days”. The “initial peak level” value in data set [3] turned out to be 13 nmol/L.

Consider `C#C[C@]1(O)CC[C@H]2[C@@H]3CCC4=CC(=O)CC[C@@H]4[C@H]3C(=C)C[C@@]21CC` [etonogestrel, (17α)-13-ethyl-17-hydroxy-11-methylene-18,19-dinorpregn-4-en-20-yn-3-one], for which, in data set [4], the “initial peak level” value worked out at 200 nmol/L.

`CCCCCCCCCCC(=O)O[C@H]1CC[C@H]2[C@@H]3CCC4=CC(=O)CC[C@]4(C)[C@H]3CC[C@]12C` [testosterone undecanoate]: the “pharmacokinetics of serum testosterone in humans (in words)” value in data set [5] was “low initial release and steady-state levels of long duration”.
